From patent US20100204128A1, “NOVEL PEPTIDES” (SANARE INVESTMENT AS, priority 2007, published 2010) come the findings set out here.

Where “and” joins values, the source holds several entries; their conditions need not be identical. Equal values may be shown once.

Holding throughout (type): cell-based
Common to all, as to conditions: for fluorescent readings: 24 hours, duplicate wells

One experiment has as its system TMX2-28 cells. Kind of experiment: AlmarBlue fluorescence cell growth test, TMX2-28 cells. The protocol: With that, the 5×10^−3M mixture contains about 0.42×10^−3M of each peptide. Furthermore, mixtures containing equal volumes of peptides SEQ ID NO:2-SEQ ID NO:7, SEQ ID NO:10 and SEQ ID NO:11 were also prepared (equal volumes of said re-feed media) to yield the following final six concentrations: […] With that, the 5×10^−3M mixture contains about […].
(§1) MCF-7 and T47D cells were seeded into 96-well plates at a density of 10,000 cells per well in 90 μL of appropriate culture medium. TMX2-28 cells were seeded into 96-well plates at a density of 5,000 cells per well in 90 μL of appropriate culture medium. Plates were placed in a 37° C., 5% CO2 incubator and cells were allowed to attach to the bottom of the well for 24 hours after which 10 μL of the appropriate refeed medium was added. Each concentration was tested in duplicate in each cell line. […] Cells were then incubated for 24 hours. Subsequently 10 μL of AlmarBlue (Biosource) was added to each well. After three hours, the fluorescence was detected using a Packard Instrument Plate Reader with 535/20 excitation and 590/20 emission filters.

Another experiment concerns T47D cells. Kind of experiment: AlmarBlue fluorescence cell growth test, T47D cells. The protocol: (§2) Re-feed media were prepared to yield the following final six concentrations of each of the 12 peptides: 5×10^−3, 5×10^−4, 5×10^−5, 5×10^−6, 5×10^−7, and 5×10^−8M. […] With that, the 5×10^−3M mixture contains about 0.42×10^−3M of each peptide. […] With that, the 5×10^−3M mixture contains about 0.42×10^−3M of each of said 8 peptides.
as §1

The next experiment deals with MCF-7 cells. Kind of experiment: AlmarBlue fluorescence cell growth test, MCF-7 cells. The protocol: as §2, §1
Setting [1] is: 5 × 10^−4 M (mixtures: total concentration), decrease vs DC5 = reduced cell growth.
Where [2] appears, read: 5 × 10^−5 M (mixtures: total concentration).
Where [3] appears, read: 5 × 10^−6 M (mixtures: total concentration).
[4] abbreviates: 5 × 10^−7 M (mixtures: total concentration).
Where [5] appears, read: 5 × 10^−8 M (mixtures: total concentration).
The mark [6] stands for this setting: 5 × 10^−9 M (mixtures: total concentration).

`c1ccc2c(c1)cc1ccc3cccc4ccc2c1c34` [BaP, Benzo[a]pyrene, reference compound]: the “effect on proliferation (in words)” value in the experiment with TMX2-28 cells (24 hours incubation) and in the experiment with T47D cells (24 hours incubation) was “insufficient to decrease the proliferation” throughout.

Take `CC/C(=C(\c1ccccc1)c1ccc(OCCN(C)C)cc1)c1ccccc1` [Tamoxifen, reference compound]: the “effect on proliferation (in words)” value in the experiment with MCF-7 cells (24 hours incubation) was “insufficient to decrease the proliferation”.

With “SEQIDNO1: synthesised peptide identified in the 10 kDa blood fraction after acupuncture; sequence not printed in the text (ASPVAPLDPLLKYGRGQPVSSASGTTTDLGQ; Derived from human blood sample)”, the fluorescent readings with TMX2-28 cells (setting [1]) is 74129 and 72743; in the experiment on TMX2-28 cells (setting [2]), 73649 and 71774; in the experiment on TMX2-28 cells (setting [3]), 72975 and 71640; in the experiment on TMX2-28 cells (setting [4]), 74503 and 75697; in the experiment on TMX2-28 cells (setting [5]), 75445 and 77164; with TMX2-28 cells (setting [6]), 71409 and 71588. Further, the fluorescent readings in the experiment with MCF-7 cells (setting [1]) is 69131 and 67176; in the experiment with MCF-7 cells (setting [2]), 65474 and 66009; in the experiment on MCF-7 cells (setting [3]), 65860 and 64140; in the experiment with MCF-7 cells (setting [4]), 62613 and 62686; in the experiment with MCF-7 cells (setting [5]) it was 63693 and 62463; with MCF-7 cells (setting [6]) it was 62279 and 60719. Further, the fluorescent readings is 65814 and 66151 in the experiment on T47D cells (setting [1]); 64794 and 65757 in the experiment on T47D cells (setting [2]); 63241 and 63091 with T47D cells (setting [3]); 63036 and 62709 in the experiment on T47D cells (setting [4]); 62633 and 62689 in the experiment on T47D cells (setting [5]); 55767 and 59593 in the experiment on T47D cells (setting [6]).

As to “SEQIDNO2: synthesised peptide identified in the 10 kDa blood fraction after acupuncture; sequence not printed in the text (KVGAHAGEYGAEALER; Derived from human blood sample)”, the fluorescent readings in the experiment on TMX2-28 cells (setting [1]) was 70121 and 70743; in the experiment with TMX2-28 cells (setting [2]) it was 70162 and 68517; with TMX2-28 cells (setting [3]), 69083 and 71861; in the experiment with TMX2-28 cells (setting [4]) it was 72557 and 73134; with TMX2-28 cells (setting [5]) it was 72061 and 73603; with TMX2-28 cells (setting [6]), 68910 and 72372. Further, the fluorescent readings in the experiment on MCF-7 cells (setting [1]) is 68630 and 65876; in the experiment on MCF-7 cells (setting [2]) it was 66492 and 66554; in the experiment with MCF-7 cells (setting [3]) it was 65617 and 65531; in the experiment on MCF-7 cells (setting [4]) it was 63699 and 63627; in the experiment on MCF-7 cells (setting [5]), 63539 and 63477; with MCF-7 cells (setting [6]), 63298 and 62132. Moreover, the fluorescent readings was 66780 and 68474 with T47D cells (setting [1]); 67257 and 66607 with T47D cells (setting [2]); 63525 and 67453 with T47D cells (setting [3]); 64064 and 66021 with T47D cells (setting [4]); 62463 and 63876 in the experiment with T47D cells (setting [5]); 57744 and 60399 in the experiment on T47D cells (setting [6]).

As for “SEQIDNO3: synthesised peptide identified in the 10 kDa blood fraction after acupuncture; sequence not printed in the text (KTFTVTEGSMAGGAWGRL; Derived from human blood sample)”, the fluorescent readings in the experiment with TMX2-28 cells (setting [1]) is 68963 and 67344; in the experiment with TMX2-28 cells (setting [2]) it was 69237 and 66454; in the experiment on TMX2-28 cells (setting [3]) it was 71007 and 67496; in the experiment with TMX2-28 cells (setting [4]), 72558 and 69648; with TMX2-28 cells (setting [5]), 72686 and 69197; with TMX2-28 cells (setting [6]), 69066 and 70821. Moreover, the fluorescent readings in the experiment on MCF-7 cells (setting [1]) is 63831 and 65178; with MCF-7 cells (setting [2]), 64053 and 64928; with MCF-7 cells (setting [3]) it was 64217 and 64899; in the experiment on MCF-7 cells (setting [4]) it was 62452 and 66233; in the experiment on MCF-7 cells (setting [5]) it was 61563 and 63132; in the experiment on MCF-7 cells (setting [6]) it was 62603 and 61621. Further, the fluorescent readings with T47D cells (setting [1]) is 61359 and 61718; in the experiment with T47D cells (setting [2]) it was 66736 and 61724; in the experiment with T47D cells (setting [3]) it was 65079 and 58554; in the experiment on T47D cells (setting [4]), 64329 and 59141; with T47D cells (setting [5]) it was 61766 and 61031; in the experiment with T47D cells (setting [6]) it was 59482 and 59451.

Regarding “SEQIDNO4: synthesised peptide identified in the 10 kDa blood fraction after acupuncture; sequence not printed in the text (KFLQAKFYQLSLERP; Derived from human blood sample)”, the fluorescent readings was 68299 and 67310 in the experiment with TMX2-28 cells (setting [1]); 67939 and 68552 in the experiment on TMX2-28 cells (setting [2]); 69917 and 70618 in the experiment with TMX2-28 cells (setting [3]); 70744 and 72469 in the experiment on TMX2-28 cells (setting [4]); 71761 and 72585 in the experiment on TMX2-28 cells (setting [5]); 70255 and 70823 with TMX2-28 cells (setting [6]). Further, the fluorescent readings in the experiment with MCF-7 cells (setting [1]) is 64475 and 66716; in the experiment with MCF-7 cells (setting [2]), 63637 and 66597; in the experiment on MCF-7 cells (setting [3]) it was 65699 and 66767; in the experiment on MCF-7 cells (setting [4]), 64278 and 64885; in the experiment on MCF-7 cells (setting [5]) it was 64878 and 64702; in the experiment on MCF-7 cells (setting [6]) it was 61356 and 61062. In addition, the fluorescent readings was 65000 and 63427 in the experiment with T47D cells (setting [1]); 66449 and 66303 in the experiment on T47D cells (setting [2]); 66808 and 65677 with T47D cells (setting [3]); 65859 and 65314 in the experiment on T47D cells (setting [4]); 66040 and 64619 with T47D cells (setting [5]); 57800 and 59394 in the experiment on T47D cells (setting [6]).

With “SEQIDNO5: synthesised peptide identified in the 10 kDa blood fraction after acupuncture; sequence not printed in the text (REVQGAFLRFMACLLKGYRV; Derived from human blood sample)”, the fluorescent readings is 27056 and 29836 in the experiment with TMX2-28 cells (setting [1]); 62564 and 67140 in the experiment with TMX2-28 cells (setting [2]); 67405 and 69619 in the experiment with TMX2-28 cells (setting [3]); 69438 and 69605 with TMX2-28 cells (setting [4]); 70141 and 70591 with TMX2-28 cells (setting [5]); 69376 and 67302 in the experiment on TMX2-28 cells (setting [6]). Further, the fluorescent readings was 56679 and 54497 in the experiment with MCF-7 cells (setting [1]); 61089 and 62458 with MCF-7 cells (setting [2]); 61618 and 65571 in the experiment on MCF-7 cells (setting [3]); 61677 and 66372 in the experiment on MCF-7 cells (setting [4]); 62738 and 64281 in the experiment on MCF-7 cells (setting [5]); 57537 and 60120 with MCF-7 cells (setting [6]). The fluorescent readings is 54287 and 54068 in the experiment with T47D cells (setting [1]); 61500 and 65566 in the experiment with T47D cells (setting [2]); 63089 and 64735 in the experiment on T47D cells (setting [3]); 64043 and 64408 in the experiment with T47D cells (setting [4]); 62339 and 63402 in the experiment on T47D cells (setting [5]); 61350 and 61820 in the experiment with T47D cells (setting [6]).

As for “SEQIDNO6: synthesised peptide identified in the 10 kDa blood fraction after acupuncture; sequence not printed in the text (RKEGKGERE; Derived from human blood sample)”, the fluorescent readings is 68949 and 68566 in the experiment on TMX2-28 cells (setting [1]); 70355 and 69358 with TMX2-28 cells (setting [2]); 70389 and 69887 with TMX2-28 cells (setting [3]); 71096 and 70512 with TMX2-28 cells (setting [4]); 70707 and 71208 in the experiment on TMX2-28 cells (setting [5]); 62308 and 64367 with TMX2-28 cells (setting [6]). The fluorescent readings in the experiment on MCF-7 cells (setting [1]) was 69282 and 66723; with MCF-7 cells (setting [2]) it was 69071 and 69114; in the experiment with MCF-7 cells (setting [3]), 67961 and 70454; with MCF-7 cells (setting [4]), 66967 and 68329; in the experiment on MCF-7 cells (setting [5]) it was 65221 and 65987; with MCF-7 cells (setting [6]), 60855 and 61454. For the same compound, the fluorescent readings in the experiment on T47D cells (setting [1]) is 60992 and 68394; in the experiment with T47D cells (setting [2]), 57868 and 68983; in the experiment on T47D cells (setting [3]) it was 66902 and 68862; in the experiment on T47D cells (setting [4]), 65508 and 66620; in the experiment with T47D cells (setting [5]), 65244 and 64730; with T47D cells (setting [6]) it was 61392 and 63577.
